These compounds were tested against T1, HDAC6 human recombinant (Homo sapiens, UniProt Q9UBN7) (assay: HDAC enzyme activity inhibition (in vitro), fluorimetric HDAC6 assay). Settings: samples at 0.1, 1, 10, 100 and 1000 nM, 37° C. 60 minutes, fluorescence Ex 390, Em 460.
T1 sequence (Q9UBN7 1-1215): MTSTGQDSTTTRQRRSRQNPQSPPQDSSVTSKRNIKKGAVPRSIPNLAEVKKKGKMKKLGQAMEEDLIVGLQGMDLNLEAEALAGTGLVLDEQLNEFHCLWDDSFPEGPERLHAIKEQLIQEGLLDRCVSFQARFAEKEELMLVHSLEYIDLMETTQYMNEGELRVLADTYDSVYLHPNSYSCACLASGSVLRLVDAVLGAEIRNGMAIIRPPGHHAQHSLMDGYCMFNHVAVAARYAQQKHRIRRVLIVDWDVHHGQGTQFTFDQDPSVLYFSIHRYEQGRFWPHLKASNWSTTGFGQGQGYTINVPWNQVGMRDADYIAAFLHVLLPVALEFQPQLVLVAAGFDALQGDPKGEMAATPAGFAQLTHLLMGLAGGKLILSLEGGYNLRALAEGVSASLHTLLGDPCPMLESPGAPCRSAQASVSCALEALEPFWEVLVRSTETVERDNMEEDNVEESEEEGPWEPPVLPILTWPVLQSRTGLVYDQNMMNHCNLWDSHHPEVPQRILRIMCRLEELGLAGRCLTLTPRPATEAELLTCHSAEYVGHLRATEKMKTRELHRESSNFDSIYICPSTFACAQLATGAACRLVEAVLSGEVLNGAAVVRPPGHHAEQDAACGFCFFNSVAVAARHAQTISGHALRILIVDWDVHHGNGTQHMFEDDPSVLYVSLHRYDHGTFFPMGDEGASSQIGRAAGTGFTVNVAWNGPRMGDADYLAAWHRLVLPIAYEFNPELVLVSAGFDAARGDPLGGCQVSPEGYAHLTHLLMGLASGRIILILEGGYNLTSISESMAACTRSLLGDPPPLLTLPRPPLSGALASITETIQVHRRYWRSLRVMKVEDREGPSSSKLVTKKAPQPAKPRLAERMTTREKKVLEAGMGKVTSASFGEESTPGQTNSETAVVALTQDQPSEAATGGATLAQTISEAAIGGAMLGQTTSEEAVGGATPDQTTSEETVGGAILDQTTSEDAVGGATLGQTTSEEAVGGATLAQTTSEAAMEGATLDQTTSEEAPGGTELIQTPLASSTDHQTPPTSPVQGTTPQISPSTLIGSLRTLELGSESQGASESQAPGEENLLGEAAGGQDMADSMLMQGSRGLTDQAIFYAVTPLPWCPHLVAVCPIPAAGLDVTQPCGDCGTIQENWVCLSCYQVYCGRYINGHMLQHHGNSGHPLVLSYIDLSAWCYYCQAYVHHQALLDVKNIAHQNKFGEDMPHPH
Assay type: biochemical
Procedure: To identify this, HDAC1/6 enzyme selectivity and cell selectivity (HDAC1: histone acetylation/HDAC6: tubulin acetylation) were investigated accordingly.
An HDAC enzyme inhibitory ability of a test material was measured by means of HDAC1 Fluorimetric Drug Discovery Assay Kit (Enzolifesciences: BML-AK511) and HDAC6 human recombinant (Calbiochem: 382180). For an HDAC1 assay, samples were treated at a concentration of 100, 1000 and 10000 nM. For an HDAC6 assay, samples were treated at a concentration of 0.1, 1, 10, 100 and 1000 nM. After such sample treatment, a reaction was continued at 37° C. for 60 minutes, then treated with a developer, and then subjected to reaction at 37° C. for 30 minutes, after which fluorescence intensity (Ex 390, Em 460) was measured by means of FlexStation3 (Molecular device).

SMILES | IC50 [nM]
O=c1cc(-c2nnc(C(F)(F)F)o2)ccn1Cc1cc(F)c(F)cc1F [Compound 30, 1-(2,4,5-trifluorobenzyl)-4-(5-(trifluoromethyl)-1,3,4-oxadiazole-2-yl)pyridine-2(1H)one] | 1790
O=c1cc(-c2nnc(C(F)F)o2)ccn1Cc1cccc(F)c1 [Compound 14, 4-(5-(difluoromethyl)-1,3,4-oxadiazole-2-yl)-1-(3-fluorobenzyl)pyridine-2(1H)-one] | 108
O=C(Cn1ccc(-c2nnc(C(F)F)o2)cc1=O)c1ccc(Cl)s1 [Compound 56, 1-(2-(5-chlorothiophene-2-yl)-2-oxoethyl)-4-(5-(difluoromethyl)-1,3,4-oxadiazole-2-yl)pyridine-2(1H)-one] | 126
CCC(CC)Cn1ccc(-c2nnc(C(F)F)o2)cc1=O [Compound 27, 4-(5-(difluoromethyl)-1,3,4-oxadiazole-2-yl)-1-(2-ethylbutyl)pyridine-2(1H)-one] | 726
O=c1cc(-c2nnc(C(F)F)o2)ccn1Cc1cc(F)ccc1F [Compound 10, 1-(2,5-difluorobenzyl)-4-(5-(difluoromethyl)-1,3,4-oxadiazole-2-yl)pyridine-2(1H)-one] | 217
O=c1cc(-c2nnc(C(F)(F)F)o2)ccn1Cc1cc(F)ccc1F [Compound 33, 1-(2,5-difluorobenzyl)-4-(5-(trifluoromethyl)-1,3,4-oxadiazole-2-yl)pyridine-2(1H)-one] | 1270
O=C(Cn1ccc(-c2nnc(C(F)(F)F)o2)cc1=O)OCc1ccccc1 [Compound 40, benzyl 2-(2-oxo-4-(5-(trifluoromethyl)-1,3,4-oxadiazole-2-yl)pyridine-1(2H)-yl)acetate] | 945
COc1ccc(OC)c(C(=O)Cn2ccc(-c3nnc(C(F)F)o3)cc2=O)c1 [Compound 24, 4-(5-(difluoromethyl)-1,3,4-oxadiazole-2-yl)-1-(2-(2,5-dimethoxyphenyl)-2-oxoethyl) pyridine-2(1H)-one] | 284
O=C(Cn1ccc(-c2nnc(C(F)F)o2)cc1=O)c1cccs1 [Compound 50, 4-(5-(difluoromethyl)-1,3,4-oxadiazole-2-yl)-1-(2-oxo-2-(thiophene-2-yl)ethyl)pyridine-2(1H)-one] | 238
O=C(N[C@@H](Cn1ccc(-c2nnc(C(F)F)o2)cc1=O)c1ccccc1)N1CCOCC1 [Compound 57, (R)—N-(2-(4-(5-(difluoromethyl)-1,3,4-oxadiazole-2-yl)-2-oxopyridine-1(2H)-yl)-1-phenylethyl)morpholine-4-carboxamide] | 301
O=C(Cn1ccc(-c2nnc(C(F)F)o2)cc1=O)c1ccccc1 [Compound 3, 4-(5-(difluoromethyl)-1,3,4-oxadiazole-2-yl)-1-(2-oxo-2-phenylethyl)pyridine-2(1H)-one] | 210
CC(C)=CCn1ccc(-c2nnc(C(F)F)o2)cc1=O [Compound 54, 4-(5-(difluoromethyl)-1,3,4-oxadiazole-2-yl)-1-(3-methylbut-2-en-1-yl)pyridine-2(1H)-one] | 663
O=C(Cn1ccc(-c2nnc(C(F)(F)F)o2)cc1=O)c1ccc(Cl)cc1 [Compound 34, 1-(2-(4-chlorophenyl)-2-oxoethyl)-4-(5-(trifluoromethyl)-1,3,4-oxadiazole-2-yl)pyridine-2(1H)-one] | 2320
O=C(Cn1ccc(-c2nnc(C(F)(F)F)o2)cc1=O)c1ccc2ccccc2c1 [Compound 41, 1-(2-(naphthalene-2-yl)-2-oxoethyl)-4-(5-(trifluoromethyl)-1,3,4-oxadiazole-2-yl)pyridine-2(1H)-one] | 5180
O=C(Cn1ccc(-c2nnc(C(F)(F)F)o2)cc1=O)c1coc2ccccc12 [Compound 38, 1-(2-(benzofuran-3-yl)-2-oxoethyl)-4-(5-(trifluoromethyl)-1,3,4-oxadiazole-2-yl)pyridine-2(1H)-one] | 2390
CCn1ccc(-c2nnc(C(F)F)o2)cc1=O [Compound 55, 4-(5-(difluoromethyl)-1,3,4-oxadiazole-2-yl)-1-ethylpyridine-2(1H)-one] | 284
C=C(C)Cn1ccc(-c2nnc(C(F)F)o2)cc1=O [Compound 52, 4-(5-(difluoromethyl)-1,3,4-oxadiazole-2-yl)-1-(2-methylallyl)pyridine-2(1H)-one] | 377
O=C(OCCn1ccc(-c2nnc(C(F)(F)F)o2)cc1=O)c1ccccc1 [Compound 39, 2-(2-oxo-4-(5-(trifluoromethyl)-1,3,4-oxadiazole-2-yl)pyridine-1(2H)-yl)ethyl benzoate] | 900
O=C(OCCn1ccc(-c2nnc(C(F)F)o2)cc1=O)c1ccccc1 [Compound 16, 2-(4-(5-(difluoromethyl)-1,3,4-oxadiazole-2-yl)-2-oxopyridine-1(2H)-yl)ethyl] | 952
O=c1cc(-c2nnc(C(F)F)o2)ccn1C/C=C/c1ccccc1 [Compound 5, 1-cinnamyl-4-(5-(difluoromethyl)-1,3,4-oxadiazole-2-yl)pyridine-2(1H)-one] | 40
O=C(Cn1ccc(-c2nnc(C(F)F)o2)cc1=O)OCc1ccccc1 [Compound 15, benzyl 2-(4-(5-(difluoromethyl)-1,3,4-oxadiazole-2-yl)-2-oxopyridine-1(2H)-yl)acetate] | 74
Cc1cc(C(=O)Cn2ccc(-c3nnc(C(F)F)o3)cc2=O)c(F)cc1Cl [Compound 23, 1-(2-(4-chloro-2-fluoro-5-methylphenyl)-2-oxoethyl)-4-(5-(difluoromethyl)-1,3,4-oxadiazole-2-yl)pyridine-2(1H)-one] | 598
O=C(Cn1ccc(-c2nnc(C(F)(F)F)o2)cc1=O)c1cccs1 [Compound 36, 1-(2-oxo-2-(thiophene-2-yl)ethyl)-4-(5-(trifluoromethyl)-1,3,4-oxadiazole-2-yl)pyridine-2(1H)-one] | 935
O=c1cc(-c2nnc(C(F)F)o2)ccn1CCn1cccn1 [Compound 6, 1-(2-(1H-pyrazole-1-yl)ethyl)-4-(5-(difluoromethyl)-1,3,4-oxadiazole-2-yl)pyridine-2(1H)-one] | 456
O=C(C(Cn1ccc(-c2nnc(C(F)F)o2)cc1=O)c1ccccc1)N1CCOCC1 (centres unmarked) [Compound 45, 4-(5-(difluoromethyl)-1,3,4-oxadiazole-2-yl)-1-(3-morpholino-3-oxo-2-phenylpropyl)pyridine-2(1H)-one] | 290
CCn1ccc(-c2nnc(C(F)(F)F)o2)cc1=O [Compound 49, 1-ethyl-4-(5-(trifluoromethyl)-1,3,4-oxadiazole-2-yl)pyridine-2(1H)-one] | 1590
O=c1cc(-c2nnc(C(F)F)o2)ccn1Cc1ccccc1Cl [Compound 12, 1-(2-chlorobenzyl)-4-(5-(difluoromethyl)-1,3,4-oxadiazole-2-yl)pyridine-2(1H)-one] | 631
O=C(Cn1ccc(-c2nnc(C(F)F)o2)cc1=O)c1coc2ccccc12 [Compound 51, 1-(2-(benzofuran-3-yl)-2-oxoethyl)-4-(5-(difluoromethyl)-1,3,4-oxadiazole-2-yl)pyridine-2(1H)-one] | 284
COc1cccc(C(=O)Cn2ccc(-c3nnc(C(F)F)o3)cc2=O)c1 [Compound 22, 4-(5-(difluoromethyl)-1,3,4-oxadiazole-2-yl)-1-(2-(3-methoxyphenyl)-2-oxoethyl)pyridine-2(1H)-one] | 427

From patent publication US11958844B2, “1,3,4-oxadiazole derivative compounds as histone deacetylase 6 inhibitor, and pharmaceutical composition comprising the same” (Chong Kun Dang Pharmaceutical Corp., priority 2018, dated 2024)
